Assay results: US20200208111A1, “GENOME-EDITED NK CELL AND METHODS OF MAKING AND USING” (REGENTS OF THE UNIVERSITY OF MINNESOTA, priority 2016, published 2020)

Assays:
CISH = CISH expression in NK cells after electroporation, protein lysates on Wes machine with CISH-specific antibody; type: cell-based, human; conditions: with Cas9 mRNA, compared to matched donor samples electroporated with Cas9 mRNA alone; five days after electroporation; n=3 donors
Procedure: NK cells (3×10^6) from three donors (donors 070, 380, and 437) stimulated with aAPCs were electroporated using the optimized NEON electroporation conditions with 10 μg Cas9 mRNA and 10 μg CISH gRNA. Five days after electroporation, cells were harvested and protein lysates were run with a CISH-specific antibody on a Wes machine (Protein Simple, San Jose, Calif.) and CISH expression (area under peak) normalized to ([…] was analyzed using Compass Software (Protein Simple, Bio-Techne, Minneapolis, Minn.). Results are shown in FIG. 9.

TIGIT = TIGIT expression in knockout NK cells by flow cytometry; type: cell-based, human; conditions: with Cas9 mRNA, compared to matched donor samples electroporated with Cas9 mRNA alone; five days after electroporation; n=2 donors
Procedure: 3×10^6 NK cells from two donors (donors 407 and 613) stimulated with aAPCs were electroporated using the optimized NEON electroporation conditions with 10 μg Cas9 mRNA and 10 μg gRNA. Five days after electroporation, cells were harvested and stained with antibodies for CD56, CD3, TIGIT, and SYTOX Blue viability dye. Cells were gated on single cells (FSC-H vs FSC-A), CD56^+, CD3^−, SYTOX Blue^−, and TIGIT^+. TIGIT expression in knockout cells was compared to matched donor samples electroporated with Cas9 mRNA alone.

PD1 = assay: CRISPR/Cas9 gene editing at PD1 in primary human NK cells, Surveyor nuclease activity assay; type: cell-based; conditions: chemically modified gRNA and Cas9 mRNA; 72 hours post electroporation
Procedure: For FIGS. 1-7 (as appropriate), activity of the gRNAs was quantified by a Surveyor Digest, gel electrophoresis, and densitometry (Guschin et al., Methods Mol. Biol., 2010, 649:247-256).
Unstimulated or stimulated CD3^−CD56^+ NK cells were nucleofected using the AMAXA nucleofection system (Human Macrophage Kit, Lonza Group, Basel, Switzerland). Cells were counted and resuspended at a density of 3.0×10^6 cells in 100 μL of Resuspension buffer, and the following reagents were added to the cells and buffer prior to nucleofection: 10 μg, 15 μg, or 20 μg mRNA Cas9 (TriLink. BioTechnologies, San Diego, Calif.), and 10 μg, 20 μg, or 30 μg gRNA (TriLink BioTechnologies, San Diego, Calif.). Three days after nucleofection, cells were harvested and gRNA activity was measured as above.

Question: With “CISH gRNA: guide RNA GGGUUCCAUUACGGCCAGCG (SEQ ID NO: 14) (listed as RNA, chemistry not given here)” as the substance, how does the CISH expression (CISH) read?
Answer: decreased

Question: How did the TIGIT expression (TIGIT) turn out when “TIGIT gRNA: guide RNA GACCUGGGUCACUUGUGCCG (SEQ ID NO: 13) (listed as RNA, chemistry not given here)” was run?
Answer: decreased

Question: How did the “Gene modification of NK cells” value (PD1) turn out when “PD1 gRNA: guide RNA CCUGCUCGUGGUGACCGAAG (SEQ ID NO: 11), chemically modified (chemically modified, pattern not given here)” was run?
Answer: gene modification of NK cells was induced
